According to article PMC7436000, “The Spectrum of Design Solutions for Improving the Activity-Selectivity Product of Peptide Antibiotics against Multidrug-Resistant Bacteria and Prostate Cancer PC-3 Cells” (Molecules, 2020):
Values after ≈ are worked out from the molar mass of the structure shown. Peptide text beside a SMILES is read from it.

How the values were obtained:
[1] = system: S. aureus clin. isolate; format: cell-based, Staphylococcus aureus; settings: clin. isolate
Source text: (§1) The American Type Culture Collection (ATCC, Rockville, MD, USA) strains and Escherichia coli MG1655 were used as standard bacterial strains. Gram-negative ATCC strains consisted of Escherichia coli (ATCC 25922), Pseudomonas aeruginosa (ATCC 27853), Acinetobacter baumannii (ATCC 19606), and Klebsiella pneumoniae (ATCC 13883). The only Gram-positive standard strain chosen for testing was Staphylococcus aureus (ATCC 29213). Clinical isolates with confirmed multidrug-resistance phenotype were obtained from different wards of the University Hospital Center, Split, Croatia. We described their origin, antibiograms, and resistance phenotype previously. In the same paper, we described the procedure for antimicrobial susceptibility testing on planktonic cells, using the microdilution method in 96-well microtiter plates.
(§2) Briefly, cells were grown on agar plates and a single colony was sampled to generate a liquid culture (LC) grown overnight at 37 °C. The culture was sampled, resuspended in fresh medium, and allowed to grow at 37 °C, until reaching the mid-exponential phase. Lysogeny broth (LB) was used in the case of the E. coli MG1655 cells. Mueller Hinton (MH) medium was used for all other bacterial strains. Serial 2-fold dilutions of the peptide (64 μM to 0.0625 μM) were prepared from peptide stock solution in PBS, and added to a final load of 5 × 10^5 CFU/mL in 100 μL total volume of medium per well in a 96-well plate (Brand 781660). Bacterial cultures were incubated with peptides for 18 h to 24 h at 37 °C. The minimum inhibitory concentration (MIC) was defined as the lowest concentration of the peptide, at which no visible bacterial growth was observed. The MIC for each of the tested peptides was determined in at least three individual assays under the same laboratory conditions. […] At the end of the incubation period for MIC or MBC, the determination of the OD600 was analyzed.

[2] = system: E. coli clin. isolate; format: cell-based, Escherichia coli; settings: clin. isolate
Source text: as §1, §2

[3] = system: human erythrocytes; assay: Hemolysis of human erythrocytes; format: cell-based; settings: 0.5% RBC in PBS, 1 h, 37 °C, absorbance 450 nm, triplicate; for HC10: concentration causing 10% hemolysis, 0.2% Triton = 100%; for HC20: concentration causing 20% hemolysis; for HC50: concentration causing 50% hemolysis
Procedure: Fresh blood was obtained from a healthy donor. Blood was stored in a tube containing EDTA at 4 °C and used within 24 h. Before use, 1 mL of blood was centrifuged (400× g, 10 min), and the supernatant was discarded. Moreover, 500 μL cold PBS with EDTA (1 mM) was added, mixed and centrifuged. The supernatant was discarded. Furthermore, 500 μL of cold PBS with EDTA (1 mM) was added, from which a dilution of 1% blood was made. Peptides were prepared in PBS at a 2 × concentration in 100 µL. […] The suspension was incubated at 37 °C for 1 h and centrifuged at 10,000× g for 5 min. […] After centrifugation, the supernatant was added to a 96-well microtiter plate (150–180 μL), and the absorbance was measured at 450 nm, using EnSight Multimode Plate Reader (PerkinElmer, Inc.). Each measurement was done in triplicate. […] We opted to also include the extrapolated HC50 in our results, to permit comparisons with older toxicity results. However, the HC20 measurements were used for ranking the peptides according to their selectivity and overall performance (Figure 1 and Figure 2 and Table 2).

[4] = system: A. baum. clin. isolate; format: cell-based, Acinetobacter baumannii
Source text: as §1, §2

[5] = system: human primary dermal fibroblasts; format: cell-based; settings: 24 h
Procedure: (§3) Prostate cancer cells were donated by the University of Split, School of Medicine. Cells were cultured in RMPI-1640 medium, supplemented with 10% FBS, 1% Penicillin-Streptomycin, and 1% L-Glutamine. Human dermal fibroblasts were purchased from Biopredic (France) and cultured in DMEM medium, supplemented with 10% FBS and 1% Penicillin-Streptomycin. All cell lines were maintained in a humidified incubator with 5% CO2 at 37 °C. Cells were detached using the trypsin-EDTA solution and sub-cultured (7000 cells/well) in a 96-well plate overnight. Peptide stock solutions were prepared in PBS, and cancer cells were treated with 2-fold serial dilutions for 24 h at 37 °C, with 5% CO2. The toxicity of 6 selected peptides was assessed by a standard MTT assay. Treated cells were incubated with MTT working solution (0.5 mg/mL Thiazolyl Blue Tetrazolium Bromide) for 4 h at 37 °C with 5% CO2. Precipitated formazan was dissolved in 200 µL DMSO and absorbance was measured at 595 nm with EnSight Multimode Plate Reader (PerkinElmer, Inc.)

[6] = system: P. aerug. clin. isolate; format: cell-based, Pseudomonas aeruginosa
Source text: as §1, §2

[7] = system: Klebsiella pneumoniae (ATCC 13883); format: cell-based; settings: ATCC 13883
Source text: as §1, §2

[8] = system: Staphylococcus aureus (ATCC 29213); format: cell-based; settings: for PEa(20) = SI/MIC(aureus): ATCC 29213, 18 h
Source text: as §1, §2

[9] = system: Escherichia coli MG1655; format: cell-based; settings: MG1655
Source text: as §1, §2

[10] = system: Acinetobacter baumannii (ATCC 19606); format: cell-based; settings: ATCC 19606
Source text: as §1, §2

[11] = system: Pseudomonas aeruginosa (ATCC 27853); format: cell-based; settings: ATCC 27853
Source text: as §1, §2

[12] = system: Escherichia coli (ATCC 25922); format: cell-based; settings: ATCC 25922
Source text: as §1, §2

[13] = system: PC-3 prostate cancer cell line; format: cell-based, human; settings: 24 h
Procedure: as §3

[14] = system: K. pneum. clin. isolate; format: cell-based, Klebsiella pneumoniae
Source text: as §1, §2

[15] = system: lymphoma cell line U937; design: method as in PMID 21403917; settings: read-out: IC50 against lymphoma cell line U937; cited from earlier work
[16] = system: standard ATCC E. coli; settings: cited from earlier work
[17] = system: standard ATCC S. aureus; settings: cited from earlier work
[18] = cited from earlier work
[19] = system: Gram-negative and Gram-positive bacteria; settings: cited from earlier work
Source text: (§4) In the ZYK1 example, the parent peptide already has selective antimicrobial and antitumor activity. […] It follows that the TI for the paren ...

[20] = system: HeLa (human cervical carcinoma cells) and HL60 (human promyelocytic leukemia cells); settings: two selected cancer cell lines; read-out: IC50 against HeLa and HL60; cited from earlier work
Source text: as §4

[21] = system: human neonate chondrocytes; settings: cited from earlier work
Source text: as §4

[22] = cited from earlier work; remark: listed apart in the source
Source text: The MAPA analog of the MAP cell-penetrating peptide is five times less hemolytic and has at least two times stronger antibacterial activity than MAP [73] (Table 2). Accordingly, by introduced substitutions, we increased the selectivity index by at least one order of magnitude, and converted a strongly hemolytic, predominantly cell-penetrating peptide with no antibacterial selectivity (SI = 1, [73]), into a potent peptide antibiotic. MAP is an important molecule for engineering new anticancer agents, but as far as we can tell, MAPA is the first known selective anticancer MAP an ...

[23] = system: human erythrocytes; settings: cited from earlier work
Source text: The cell-penetrating ability is inherent to some amphipathic peptides with a high percentage of cationic residues. More than five arginines are required to direct membrane penetration through the eukaryotic membrane. This condition is fulfilled by guananin 2, the PenArg analog of penetratin, and T2R1, but not by T2. Penetratin, with the sequence […], is a well-known cell-penetrating peptide, which is furthermore an antimicrobial and anticancer peptide. That peptide is, to some degree, toxic to HeLa and Jurkat cancer cell lines. The toxicity to HeLa ...

Compound | MIC (S. aureus clin. isolate) [1] [µM] | MIC (E. coli clin. isolate) [2] [µM] | HC10 [3] [µM] | HC20 [3] [µM] | HC50 [3] [µM] | MIC (A. baum. clin. isolate) [4] [µM] | IC50 [5] [µM] | MIC (P. aerug. clin. isolate) [6] [µM] | MIC (K. pneum. ATCC 13883) [7] [µM] | MIC (S. aureus ATCC 29213) [8] [µM] | PEa(20) = SI/MIC(aureus) [8] [µM⁻¹] | MIC (E. coli MG1655) [9] [µM] | MIC (A. baum. ATCC 19606) [10] [µM] | MIC (P. aerug. ATCC 27853) [11] [µM] | MIC (E. coli ATCC 25922) [12] [µM] | (TI/ IC50C) vs. MP1 [13] | IC50 [13] [µM] | TI (HC20/IC20C) [13] | TI (IC50F/IC50C) [13] | TI/ IC50C [13] | other results
CC[C@H](C)[C@H](NC(=O)[C@H](CCCNC(=N)N)NC(=O)[C@H](C)NC(=O)[C@H](Cc1ccc(O)cc1)NC(=O)[C@H](CCCNC(=N)N)NC(=O)[C@H](CCCNC(=N)N)NC(=O)[C@H](Cc1c[nH]c2ccccc12)NC(=O)[C@H](Cc1c[nH]cn1)NC(=O)[C@@H](N)Cc1c[nH]cn1)C(=O)NCC(=O)N[C@@H](Cc1ccccc1)C(=O)N[C@@H](CCCNC(=N)N)C(=O)N[C@@H](C)C(=O)N[C@H](C(=O)N[C@@H](CCCNC(=N)N)C(=O)N[C@H](C(=O)N[C@H](C(=O)N[C@H](C(=O)NCC(=O)N[C@@H](CCCCN)C(N)=O)[C@@H](C)CC)C(C)C)[C@@H](C)O)C(C)C [T2] (H-HHWRRYARIGFRAVRTVIGK-NH2) | 4 (≈ 9.92 µg/mL) | 8 (≈ 19.8 µg/mL) | 1.4 | 3 | 28 | 8 (≈ 19.8 µg/mL) | 35 | 32 (≈ 79.3 µg/mL) | 4 (≈ 9.92 µg/mL) | 1 (≈ 2.48 µg/mL) | 3 | >32 | 1 (≈ 2.48 µg/mL) | 4 (≈ 9.92 µg/mL) | 0.5 to 1 | 8.4 | 10 | 1 | 3.5 | 0.35 | MIC (K. pneum. clin. isolate) [14]: 8 µM (≈ 19.8 µg/mL)
CC[C@H](C)[C@H](NC(=O)[C@@H](NC(=O)[C@H](CCCNC(=N)N)NC(=O)CNC(=O)[C@@H](NC(=O)[C@H](CCCCN)NC(=O)[C@H](CCCCN)NC(=O)CNC(=O)[C@@H](NC(=O)[C@H](CCCCN)NC(=O)[C@H](CCCCN)NC(=O)[C@@H](NC(=O)[C@@H](NC(=O)[C@H](CCCCN)NC(=O)[C@H](CCCCN)NC(=O)[C@@H](NC(=O)[C@@H](NC(=O)[C@H](CCC(=O)O)NC(=O)[C@H](CCCNC(=N)N)NC(=O)CNC(=O)[C@@H](NC(=O)CN)[C@@H](C)CC)[C@@H](C)CC)[C@@H](C)CC)[C@@H](C)CC)[C@@H](C)CC)[C@@H](C)CC)[C@@H](C)CC)[C@@H](C)CC)C(N)=O [ZYK1] (H-GIGREIIKKIIKKIGKKIGRII-NH2) | 2 (≈ 4.95 µg/mL) | 2 (≈ 4.95 µg/mL) | 3 | 8 | 29 | 2 (≈ 4.95 µg/mL) | 10 | 16 (≈ 39.6 µg/mL) | 2 (≈ 4.95 µg/mL) | 1 (≈ 2.47 µg/mL) | 8 | 4 (≈ 9.9 µg/mL) | 2 (≈ 4.95 µg/mL) | 16 (≈ 39.6 µg/mL) | 1 (≈ 2.47 µg/mL) | 107 | 1.5 | 8.6 | 6.7 | 4.47 | MIC (K. pneum. clin. isolate) [14]: 4 µM (≈ 9.9 µg/mL)
GIGKFLKKAKKFGKAFVKILKK [pexiganan] |  |  |  |  |  |  |  |  |  |  |  |  |  |  |  |  |  |  |  |  | IC50 [15]: 4 µM; MIC, standard ATCC E. coli [16]: 6.5 µM; MIC, standard ATCC S. aureus [17]: 6.5 µM; HC50 hemolytic activity [18]: 45 µM
GIIKKIIKKIIKKI-NH2 [already known artificial AMP template of ZYK1] |  |  |  |  |  |  |  |  |  |  |  |  |  |  |  |  |  |  |  |  | MIC values [19]: about 10 μM; IC50 [20]: 15 to 25 µM; IC50 [21]: > 40 µM
KLALKLALKALKAALKLA [MAP, cell-penetrating peptide, template of mapegin] |  |  |  |  |  |  |  |  |  |  |  |  |  |  |  |  |  |  |  |  | antibacterial selectivity SI [22]: 1
RQYMRQIEQALRYGYRISRR [guananin 2, arginine-rich designed peptide from the literature] |  |  |  |  |  |  |  |  |  |  |  |  |  |  |  |  |  |  |  |  | selectivity index [23]: about 24
